# Test results published in US12291721B2, “Activated lymphocytes comprising cytokine-induced killer cells and preparation method therefor” (GREENCROSSCELL, priority 2019, dated 2025).
# Key:
# [1] = test system: human pancreatic cancer (AsPC-1); test: Anticancer effects on human pancreatic cancer (AsPC-1) xenograft; assay type: in vivo, nude mice
# Experimental: Nude mice were purchased and stored in a specific pathogen free (SPF) room of the Korea Research Institute of Bioscience and Biotechnology, and allowed to acclimate for 1 week before use. Human pancreatic cancer, that is, AsPC1 cells were injected subcutaneously into each nude mouse at a concentration of 9×10^6 cells. […] As a positive control group, adriamycin was administered intravenously at a concentration of 2 mg/kg once a week for total 4 times.
# (§1) Standard deviations (SDs) and p-values of all test results were calculated using ANOVA (Prisim, GraphPad software, USA) and student's t-test.
# [2] = test system: human prostate cancer (PC-3); test: Anticancer effects on human prostate cancer (PC-3) xenograft; assay type: in vivo, nude mice
# Experimental: Nude mice were purchased and stored in a specific pathogen free (SPF) room of the Korea Research Institute of Bioscience and Biotechnology, and allowed to acclimate for 1 week before use. Human prostate cancer, that is, PC-3 cells were injected subcutaneously into each nude mouse at a concentration of 9×10^6 cells. […] As a positive control group, adriamycin was administered intravenously at a concentration of 2 mg/kg once a week for total 4 times.
# as §1
# [3] = test system: human colon cancer (SW620); test: Anticancer effects on human colon cancer (SW620) xenograft; assay type: in vivo, nude mice
# Experimental: Nude mice were purchased and stored in a specific pathogen free (SPF) room of the Korea Research Institute of Bioscience and Biotechnology, and allowed to acclimate for 1 week before use. Human colon cancer, that is, SW620 cells were injected subcutaneously into each nude mouse at a concentration of 6×10^6 cells. […] As a positive control group, adriamycin was administered intravenously at a concentration of 2 mg/kg once a week for total 4 times.
# as §1
# [4] = test system: human renal cancer (ACHN); test: Anticancer effects on human renal cancer (ACHN) xenograft
# Experimental: Nude mice were purchased and stored in a specific pathogen free (SPF) room of the Korea Research Institute of Bioscience and Biotechnology, and allowed to acclimate for 1 week before use. Human renal cancer, that is, ACHN cells were injected subcutaneously into each nude mouse at a concentration of 1.2×10^7 cells. […] As a positive control group, adriamycin was administered intravenously at a concentration of 2 mg/kg once a week for total 4 times.
# Standard deviations (SDs) and p-values of all test results were calculated using ANOVA (Prisim. GraphPad software, USA) and student's t-test.
# [5] = test system: human melanoma cancer (LOX-IMV1); test: Anticancer effects on human melanoma cancer (LOX-IMV1) xenograft
# Experimental: Nude mice were purchased and stored in a specific pathogen free (SPF) room of the Korea Research Institute of Bioscience and Biotechnology, and allowed to acclimate for 1 week before use. Human melanoma cancer, that is, LOX-IMV1 cells were injected subcutaneously into each nude mouse at a concentration of 1.5×10^6 cells. […] As a positive control group, adriamycin was administered intravenously at a concentration of 2 mg/kg once a week for total 3 times.
# as §1
# [6] = adriamycin 2 mg/kg i.v., day 25
# [7] = day 25 compared with Day-1 (100%), adriamycin 2 mg/kg
# [8] = adriamycin 2 mg/kg i.v., day 22
# [9] = adriamycin 2 mg/kg i.v., day 28
# [10] = adriamycin 2 mg/kg i.v., day 15
compound,measurement,setting,value
COc1cccc2c1C(=O)c1c(O)c3c(c(O)c1C2=O)C[C@@](O)(C(=O)CO)C[C@@H]3O[C@H]1C[C@H](N)[C@H](O)[C@H](C)O1 [adriamycin],growth inhibition (tumor size),[1]; [6],48%
same,growth inhibition (tumor weight),[1]; [6],44%
same,tumor size,[1]; [6],130±28 mm^3
same,tumor weight,[1]; [6],473 ± 64 mg
same,Tumor growth rate (%) compared to the control group,"[1]; adriamycin (2 mg/kg), day 25, AsPC-1",55 ± 8%
same,body weight change,[1]; [7],125%
same,growth inhibition (tumor size),[2]; [8],40%
same,growth inhibition (tumor weight),[2]; [8],40%
same,tumor size,[2]; [8],225±59 mm^3
same,tumor weight,[2]; [8],808 ± 156 mg
same,Tumor growth rate (%) compared to the control group,"[2]; adriamycin (2 mg/kg), day 22, PC-3",60 ± 12%
same,body weight change,"[2]; day 22 compared with Day-1 (100%), adriamycin 2 mg/kg",102%
same,growth inhibition (tumor size),[3]; [6],48%
same,growth inhibition (tumor weight),[3]; [6],49%
same,tumor size,[3]; [6],142±97 mm^3
same,tumor weight,[3]; [6],834 ± 306 mg
same,Tumor growth rate (%) compared to the control group,"[3]; adriamycin (2 mg/kg), day 25, SW-620",54 ± 28%
same,body weight change,[3]; [7],114%
same,growth inhibition (tumor size),[4]; [9],40%
same,growth inhibition (tumor weight),[4]; [9],37%
same,tumor size,[4]; [9],192±44 mm^3
same,tumor weight,[4]; [9],409 ± 41 mg
same,Tumor growth rate (%) compared to the control group,"[4]; adriamycin (2 mg/kg), day 28, ACHN",63 ± 6%
same,body weight change,"[4]; day 28 compared with Day-1 (100%), adriamycin 2 mg/kg",95%
same,growth inhibition (tumor size),[5]; [10],72%
same,growth inhibition (tumor weight),[5]; [10],70%
same,tumor weight,[5]; [10],496 ± 306 mg
same,Tumor growth rate (%) compared to the control group,"[5]; adriamycin (2 mg/kg), day 15, LOX-IMVI",30 ± 18%
same,body weight change,"[5]; day 15 compared with Day-1, adriamycin 2 mg/kg",122%
